Tested on: acute pylorus-ligated rat preparation
Test: In vivo protection against acid-induced gastric damage in HCl-challenged rats (gross examination, gastric hemoglobin)
Conditions: individual phospholipid, gastric sample hemoglobin after 0.6 N HCl
Protocol: Applicants directly investigated this question in an acute pylorus-ligated rat preparation, in which test agents could be administered directly into the stomach by way of an esophageal cannula. Rats were fasted overnight and maintained under Nembutal anesthesia throughout the study period. The rats were divided into two groups (3 rats/grp); one group which was designated "surfactant treated" received 0.5 ml of a liposomal suspension in saline of the following phospholipids: […], 15 µg of DPPE, DPPG, DPPI and Sphingomyelin; and the second group (controls) was intragastrically injected with 0.5 ml of saline. Five minutes later both groups received 1 ml of an ulcerogenic dose of 0.6 N HCI. The anesthetized animals were left undisturbed for 45 minutes, after which they were sacrificed, and the stomachs excised, opened along the greater curvature and examined.
In another series of in vivo experiments, the individual phospholipids: dipalmitoyl lecithin, dipalmitoyl phosphatidyl ethanolamine, and phosphatidyl choline were tested for anti-ulcer activity. The experiments were performed as described above. In addition, immediately before the rat was sacrificed, a gastric sample was withdrawn for hemoglobin analysis. […] Sample anti-ulcer activity was measured as a percent of hemoglobin count relative to hemoglobin detected from animals pretreated with the combination of 135 µg DPL, 15 µg of DPPE, DPPG, DPPI and sphingomyelin mixture.
Anti-ulcer activity was inversely proportional,to the amount of hemoglobin detected. Table I tabulates the relative anti-ulcer activity of the individually tested phospholipids.

Row | Molecule | ACTIVITY (anti-ulcer activity, hemoglobin count relative to mixture) (15 µg) | ACTIVITY (anti-ulcer activity, hemoglobin count relative to mixture) (135 µg) [%]
1 | CCCCCCCCCCCCCCCC(=O)OCC(COP(=O)([O-])OCC[N+](C)(C)C)OC(=O)CCCCCCCCCCCCCCC (stereo not drawn) [Dipalmitoyl lecithin, dipalmitoyl lecithin] | 95% | 90
2 | CCCCCCCCCCCCCCCC(=O)OCC(COP(=O)(O)OCCN)OC(=O)CCCCCCCCCCCCCCC (stereo not drawn) [Dipalmitoyl phosphatidyl ethanolamine, dipalmitoyl phosphatidyl ethanolamine] | 75-80% | 70
3 | phosphatidylcholine [Phosphatidyl choline] | 80% | 80
